{
  "source": "patent US11180494B2",
  "about": "“Substituted amino acids as integrin inhibitors” (Pliant Therapeutics, Inc., priority 2018, dated 2021)",
  "note": "pIC50: −log10 of the molar value.",
  "data": [
    {"target": "human integrin αvβ6 (Homo sapiens (Human), UniProt P06756+P18564)", "sequence (P06756 31-992)": "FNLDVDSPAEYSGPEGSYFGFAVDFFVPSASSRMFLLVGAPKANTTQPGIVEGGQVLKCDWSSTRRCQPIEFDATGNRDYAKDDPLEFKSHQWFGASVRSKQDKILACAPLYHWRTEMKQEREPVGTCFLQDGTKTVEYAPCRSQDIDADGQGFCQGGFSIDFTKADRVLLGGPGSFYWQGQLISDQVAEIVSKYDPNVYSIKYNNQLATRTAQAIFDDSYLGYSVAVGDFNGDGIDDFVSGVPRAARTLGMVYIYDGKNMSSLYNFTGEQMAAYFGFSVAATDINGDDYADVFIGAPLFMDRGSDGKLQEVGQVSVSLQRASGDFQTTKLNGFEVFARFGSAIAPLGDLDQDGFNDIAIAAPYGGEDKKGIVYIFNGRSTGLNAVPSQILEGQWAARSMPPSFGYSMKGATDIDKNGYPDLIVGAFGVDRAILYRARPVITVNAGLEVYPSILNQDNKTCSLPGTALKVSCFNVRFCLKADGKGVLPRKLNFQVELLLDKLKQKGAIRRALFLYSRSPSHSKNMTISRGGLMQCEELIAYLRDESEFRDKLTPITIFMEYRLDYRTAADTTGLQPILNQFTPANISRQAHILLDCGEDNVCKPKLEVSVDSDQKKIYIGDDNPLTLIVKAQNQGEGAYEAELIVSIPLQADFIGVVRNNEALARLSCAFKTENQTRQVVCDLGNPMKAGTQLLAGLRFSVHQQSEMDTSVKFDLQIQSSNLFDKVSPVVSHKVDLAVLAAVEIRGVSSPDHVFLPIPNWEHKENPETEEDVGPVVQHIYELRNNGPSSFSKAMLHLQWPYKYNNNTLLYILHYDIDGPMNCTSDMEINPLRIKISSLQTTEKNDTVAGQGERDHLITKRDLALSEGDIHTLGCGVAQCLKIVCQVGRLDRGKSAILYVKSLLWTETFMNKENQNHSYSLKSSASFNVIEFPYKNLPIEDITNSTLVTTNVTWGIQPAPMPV", "sequence (P18564 22-707)": "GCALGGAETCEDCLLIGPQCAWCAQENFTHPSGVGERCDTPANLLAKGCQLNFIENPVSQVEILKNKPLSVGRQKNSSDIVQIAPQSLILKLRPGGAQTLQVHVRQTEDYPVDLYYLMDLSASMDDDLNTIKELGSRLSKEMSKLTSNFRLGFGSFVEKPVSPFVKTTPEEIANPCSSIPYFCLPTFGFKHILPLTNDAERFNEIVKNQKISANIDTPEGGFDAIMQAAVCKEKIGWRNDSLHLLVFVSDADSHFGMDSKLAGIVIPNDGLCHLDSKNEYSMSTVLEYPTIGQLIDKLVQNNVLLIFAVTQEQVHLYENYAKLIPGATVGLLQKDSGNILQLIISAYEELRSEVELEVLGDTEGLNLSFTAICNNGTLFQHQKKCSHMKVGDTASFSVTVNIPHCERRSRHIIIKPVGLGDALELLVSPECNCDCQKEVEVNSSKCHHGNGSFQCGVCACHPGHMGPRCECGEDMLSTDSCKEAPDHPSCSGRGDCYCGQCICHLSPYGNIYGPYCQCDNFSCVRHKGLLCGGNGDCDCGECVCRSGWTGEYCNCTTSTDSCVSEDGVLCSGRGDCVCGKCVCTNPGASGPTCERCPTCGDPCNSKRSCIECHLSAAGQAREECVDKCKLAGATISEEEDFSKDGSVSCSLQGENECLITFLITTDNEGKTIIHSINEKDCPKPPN", "experiment": "Proximity-based integrin receptor binding assay (ALPHASCREEN) for inhibitor potency", "conditions": "inhibition of binding of TGF-b1 LAP to human integrin αvβ6; values given in ranges", "protocol": "To gauge the potency of inhibitors of binding to human integrin αvβ6, inhibitor compounds and integrin were incubated together with TGF-b1 LAP and biotinylated anti-LAP antibody plus acceptor and donor beads, following the manufacture's recommendations. The donor beads were coated with streptavidin. […] All incubations occurred at room temperatures in 50 mM Tris-HCl, pH 7.5, 0.1% BSA supplemented with 1 mM each CaCl2 and MgCl2.\nThe order of reagent addition was as follows:\n1. Alpha-v-beta-6 integrin, test inhibitor compound, LAP, biotinylated anti-LAP antibody and acceptor beads were all added together.\n2. After 2 hours, donor beads were added. After another 30 minute incubation, samples were then read.\nIntegrin binding was evaluated by exciting donor beads at 680 nm, and measuring the fluorescent signal produced, between 520-620 nm, using a Biotek Instruments (Winooski, Vt., USA) SynergyNeo2 multimode plate reader. […] Data analysis for IC50 determinations was carried out by nonlinear four parameter logistic regression analysis using Dotmatics ELN Software (Core Informatics Inc., Branford, Conn.).", "values": [
      {"smiles": "O=C(NC(CCOCCCCc1ccc2c(n1)NCCC2)C(=O)O)c1cccc(F)c1Cl", "note": "(racemic) [Compound 1, N-(2-chloro-3-fluorobenzoyl)-O-(4-(5,6,7,8-tetrahydro-1,8-naphthyridin-2-yl)butyl)homoserine]", "pIC50": "> 7.30"},
      {"smiles": "O=C(N[C@@H](CCO[C@H]1C[C@H](CCc2ccc3c(n2)NCCC3)C1)C(=O)O)c1ccnc2cc[nH]c12", "note": "(relative stereo) [Compound 170, N-(1H-pyrrolo[3,2-b]pyridine-7-carbonyl)-O-(trans-3-(2-(5,6,7,8-tetrahydro-1,8-naphthyridin-2-yl)ethyl)cyclobutyl)homoserine]", "pIC50": "> 7.30"},
      {"smiles": "O=C(N[C@@H](CCO[C@H]1C[C@H](CCc2ccc3c(n2)NCCC3)C1)C(=O)O)C1CCCc2cn[nH]c21", "note": "(relative stereo) [Compound 177, O-(trans-3-(2-(5,6,7,8-tetrahydro-1,8-naphthyridin-2-yl)ethyl)cyclobutyl)-N-(4,5,6,7-tetrahydro-1H-indazole-7-carbonyl)homoserine]", "pIC50": "6.60 to 7.30"},
      {"smiles": "O=C(N[C@@H](CCO[C@H]1C[C@H](CCc2ccc3c(n2)NCCC3)C1)C(=O)O)C1CCc2ccccc21", "note": "(single isomer, unassigned) [95*,†]", "pIC50": "< 6.00"},
      {"smiles": "O=C(N[C@@H](CCO[C@H]1C[C@H](CCc2ccc3c(n2)NCCC3)C1)C(=O)O)C1CCc2ccccc21", "note": "(single isomer, unassigned) [96*,††]", "pIC50": "6.00 to 6.60"},
      {"smiles": "O=C(N[C@@H](CCO[C@H]1C[C@H](CCc2ccc3c(n2)NCCC3)C1)C(=O)O)C1CCc2ccccc21", "note": "(single isomer, unassigned) [110**,†]", "pIC50": "6.60 to 7.30"},
      {"smiles": "O=C(N[C@@H](CCO[C@H]1C[C@H](CCc2ccc3c(n2)NCCC3)C1)C(=O)O)C1CCc2ccccc21", "note": "(single isomer, unassigned) [111**,††]", "pIC50": "> 7.30"},
      {"smiles": "CC(CO[C@H]1C[C@H](CCc2ccc3c(n2)NCCC3)C1)C(NC(=O)OC(C)(C)C)C(=O)O", "note": "(single isomer, unassigned) [Example 145A, 2-((tert-butoxycarbonyl)amino)-3-methyl-4-(trans-3-(2-(5,6,7,8-tetrahydro-1,8-naphthyridin-2-yl)ethyl)cyclobutoxy)butanoic Acid]", "pIC50": "6.00 to 6.60"},
      {"smiles": "CC(CO[C@H]1C[C@H](CCc2ccc3c(n2)NCCC3)C1)C(NC(=O)OC(C)(C)C)C(=O)O", "note": "(single isomer, unassigned) [Example 145B, 2-((tert-butoxycarbonyl)amino)-3-methyl-4-(trans-3-(2-(5,6,7,8-tetrahydro-1,8-naphthyridin-2-yl)ethyl)cyclobutoxy)butanoic Acid]", "pIC50": "6.60 to 7.30"},
      {"smiles": "CCC(CC(F)F)C(=O)NC(CCO[C@H]1C[C@H](CCc2ccc3c(n2)NCCC3)C1)C(=O)O", "note": "(single isomer, unassigned) [Example 162b, N-(-2-ethyl-4,4-difluorobutanoyl)-O-(trans-3-(2-(5,6,7,8-tetrahydro-1,8-naphthyridin-2-yl)ethyl)cyclobutyl)homoserine]", "pIC50": "> 7.30"},
      {"smiles": "Cn1ncc2c(C(=O)NC(CCOCCCCc3ccc4c(n3)NCCC4)C(=O)O)cccc21", "note": "(centres unmarked) [Compound 4, N-(1-methyl-1H-indazole-4-carbonyl)-O-(4-(5,6,7,8-tetrahydro-1,8-naphthyridin-2-yl)butyl)homoserine]", "pIC50": "< 6.00"},
      {"smiles": "CCC(CC)C(=O)NC(CCOCCCCc1ccc2c(n1)NCCC2)C(=O)O", "note": "(centres unmarked) [Compound 5, N-(2-ethylbutanoyl)-O-(4-(5,6,7,8-tetrahydro-1,8-naphthyridin-2-yl)butyl)homoserine]", "pIC50": "6.60 to 7.30"},
      {"smiles": "O=C(NC(CCOCCCCc1ccc2c(n1)NCCC2)C(=O)O)c1ccccc1", "note": "(centres unmarked) [Compound 6, N-benzoyl-O-(4-(5,6,7,8-tetrahydro-1,8-naphthyridin-2-yl)butyl)homoserine]", "pIC50": "6.00 to 6.60"},
      {"smiles": "O=C(NC(CCOCCCCc1ccc2c(n1)NCCC2)C(=O)O)C1CCC(F)(F)CC1", "note": "(centres unmarked) [Compound 7, N-(4,4-difluorocyclohexane-1-carbonyl)-O-(4-(5,6,7,8-tetrahydro-1,8-naphthyridin-2-yl)butyl)homoserine]", "pIC50": "6.60 to 7.30"},
      {"smiles": "CCCCC(=O)NC(CCOCCCCc1ccc2c(n1)NCCC2)C(=O)O", "note": "(centres unmarked) [Compound 8, N-pentanoyl-O-(4-(5,6,7,8-tetrahydro-1,8-naphthyridin-2-yl)butyl)homoserine]", "pIC50": "6.00 to 6.60"},
      {"smiles": "O=C(NC(CCOCCCCc1ccc2c(n1)NCCC2)C(=O)O)c1cc(F)cc(C(F)(F)F)c1", "note": "(centres unmarked) [Compound 9, N-(3-fluoro-5-(trifluoromethyl)benzoyl)-O-(4-(5,6,7,8-tetrahydro-1,8-naphthyridin-2-yl)butyl)homoserine]", "pIC50": "6.60 to 7.30"},
      {"smiles": "O=C(NC(CCOC1CC(CCc2ccc3c(n2)NCCC3)C1)C(=O)O)c1cc(F)cc(C(F)(F)F)c1", "note": "(centres unmarked) [Compound 10, N-(3-fluoro-5-(trifluoromethyl)benzoyl)-O-(3-(2-(5,6,7,8-tetrahydro-1,8-naphthyridin-2-yl)ethyl)cyclobutyl)homoserine]", "pIC50": "6.60 to 7.30"},
      {"smiles": "CCCCC(=O)NC(CCOC1CC(CCc2ccc3c(n2)NCCC3)C1)C(=O)O", "note": "(centres unmarked) [Compound 11, N-pentanoyl-O-(3-(2-(5,6,7,8-tetrahydro-1,8-naphthyridin-2-yl)ethyl)cyclobutyl)homoserine]", "pIC50": "6.60 to 7.30"},
      {"smiles": "CC(C)(C)OC(=O)NC(CCOCCCCc1ccc2c(n1)NCCC2)C(=O)O", "note": "(centres unmarked) [Compound 13, N-(tert-butoxycarbonyl)-O-(4-(5,6,7,8-tetrahydro-1,8-naphthyridin-2-yl)butyl)homoserine]", "pIC50": "6.00 to 6.60"},
      {"smiles": "O=C(N[C@@H](CCO[C@H]1C[C@@H](CCc2ccc3c(n2)NCCC3)C1)C(=O)O)c1cccc(F)c1Cl", "note": "[Compound 14, N-(2-chloro-3-fluorobenzoyl)-O-(cis-3-(2-(5,6,7,8-tetrahydro-1,8-naphthyridin-2-yl)ethyl)cyclobutyl)homoserine]", "pIC50": "> 7.30"},
      {"smiles": "O=C(N[C@@H](CCO[C@H]1C[C@@H](CCc2ccc3c(n2)NCCC3)C1)C(=O)O)c1ccc(F)cc1", "note": "[Compound 15, N-(4-fluorobenzoyl)-O-(cis-3-(2-(5,6,7,8-tetrahydro-1,8-naphthyridin-2-yl)ethyl)cyclobutyl)homoserine]", "pIC50": "> 7.30"},
      {"smiles": "O=C(N[C@@H](CCO[C@H]1C[C@H](CCc2ccc3c(n2)NCCC3)C1)C(=O)O)c1ccc(F)cc1", "note": "[Compound 16, N-(4-fluorobenzoyl)-O-(trans-3-(2-(5,6,7,8-tetrahydro-1,8-naphthyridin-2-yl)ethyl)cyclobutyl)homoserine]", "pIC50": "> 7.30"},
      {"smiles": "O=C(N[C@@H](CCO[C@H]1C[C@H](CCc2ccc3c(n2)NCCC3)C1)C(=O)O)c1ccc(Cl)cc1", "note": "[Compound 17, N-(4-chlorobenzoyl)-O-(trans-3-(2-(5,6,7,8-tetrahydro-1,8-naphthyridin-2-yl)ethyl)cyclobutyl)homoserine]", "pIC50": "> 7.30"},
      {"smiles": "CC(C)(C)OC(=O)N[C@@H](CCO[C@H]1C[C@@H](CCc2ccc3c(n2)NCCC3)C1)C(=O)O", "note": "[Compound 18, N-(tert-butoxycarbonyl)-O-(cis-3-(2-(5,6,7,8-tetrahydro-1,8-naphthyridin-2-yl)ethyl)cyclobutyl)homoserine]", "pIC50": "6.60 to 7.30"},
      {"smiles": "O=C(N[C@@H](CCO[C@H]1C[C@H](CCc2ccc3c(n2)NCCC3)C1)C(=O)O)c1cccc(F)c1", "note": "[Compound 19, N-(3-fluorobenzoyl)-O-(trans-3-(2-(5,6,7,8-tetrahydro-1,8-naphthyridin-2-yl)ethyl)cyclobutyl)homoserine]", "pIC50": "> 7.30"},
      {"smiles": "O=C(N[C@@H](CCO[C@H]1C[C@H](CCc2ccc3c(n2)NCCC3)C1)C(=O)O)c1cccc(Cl)c1", "note": "[Compound 20, N-(3-chlorobenzoyl)-O-(trans-3-(2-(5,6,7,8-tetrahydro-1,8-naphthyridin-2-yl)ethyl)cyclobutyl)homoserine]", "pIC50": "> 7.30"},
      {"smiles": "O=C(N[C@@H](CCO[C@H]1C[C@H](CCc2ccc3c(n2)NCCC3)C1)C(=O)O)c1ccccc1Cl", "note": "[Compound 21, N-(2-chlorobenzoyl)-O-(trans-3-(2-(5,6,7,8-tetrahydro-1,8-naphthyridin-2-yl)ethyl)cyclobutyl)homoserine]", "pIC50": "> 7.30"},
      {"smiles": "O=C(N[C@@H](CCO[C@H]1C[C@H](CCc2ccc3c(n2)NCCC3)C1)C(=O)O)c1ccccc1F", "note": "[Compound 22, N-(2-fluorobenzoyl)-O-(trans-3-(2-(5,6,7,8-tetrahydro-1,8-naphthyridin-2-yl)ethyl)cyclobutyl)homoserine]", "pIC50": "> 7.30"},
      {"smiles": "O=C(N[C@@H](CCO[C@H]1C[C@H](CCc2ccc3c(n2)NCCC3)C1)C(=O)O)c1cccc(F)c1F", "note": "[Compound 23, N-(2,3-difluorobenzoyl)-O-(trans-3-(2-(5,6,7,8-tetrahydro-1,8-naphthyridin-2-yl)ethyl)cyclobutyl)homoserine]", "pIC50": "> 7.30"},
      {"smiles": "O=C(N[C@@H](CCO[C@H]1C[C@H](CCc2ccc3c(n2)NCCC3)C1)C(=O)O)c1ccc(F)cc1F", "note": "[Compound 24, N-(2,4-difluorobenzoyl)-O-(trans-3-(2-(5,6,7,8-tetrahydro-1,8-naphthyridin-2-yl)ethyl)cyclobutyl)homoserine]", "pIC50": "> 7.30"},
      {"smiles": "O=C(N[C@@H](CCO[C@H]1C[C@H](CCc2ccc3c(n2)NCCC3)C1)C(=O)O)c1ccc(F)cc1Cl", "note": "[Compound 25, N-(2-chloro-4-fluorobenzoyl)-O-(trans-3-(2-(5,6,7,8-tetrahydro-1,8-naphthyridin-2-yl)ethyl)cyclobutyl)homoserine]", "pIC50": "> 7.30"},
      {"smiles": "O=C(N[C@@H](CCO[C@H]1C[C@H](CCc2ccc3c(n2)NCCC3)C1)C(=O)O)c1cc(F)cc(Cl)c1", "note": "[Compound 26, N-(3-chloro-5-fluorobenzoyl)-O-(trans-3-(2-(5,6,7,8-tetrahydro-1,8-naphthyridin-2-yl)ethyl)cyclobutyl)homoserine]", "pIC50": "> 7.30"}
    ]}
  ]
}
